We go through five compounds from PMC3198036 (Frontiers in Pharmacology, 2011).

Usually pKi stands for the Ki on a negative log10 scale, so that one unit is a factor of ten.

Assay [1] has as its target nicotinic acetylcholine receptors (nAChRs), [^3H]-epibatidine binding sites in rat cerebral cortex.
For assay [2] the target is unchanged. Put plainly: Homogenate binding assay with [^3H]-epibatidine, rat cerebral cortex homogenates.
In assay [3] the test system is nicotinic acetylcholine receptors (nAChRs), [^3H]-epibatidine binding sites in rat cerebellum.
The target in assay [4] is nicotinic acetylcholine receptors (nAChRs), [^3H]-epibatidine binding sites in rat cerebellum. This is another data set of the same source.
The test system of assay [5] is nAChRs ([^3H]-epibatidine binding sites) in rat cortex and cerebellum. To be noted: in vivo.

Where “and” joins values, the source holds several entries; their conditions need not be identical. Identical values can stand only once. Counter-ions that a name gives are not always drawn. Like-named read-outs stand apart in the source and are kept apart here.

As for `O=c1cccc2n1C[C@@H]1CNC[C@H]2C1` [Cytisine, cytisine], in assay [1], the pKihigh was 8.7 ± 0.1 and the pKilow is 6.7 ± 0.1. For the same compound, in assay [2], the pKihigh is reported as 9.4 ± 0.0 and the pKilow amounted to 7.2 ± 0.2.
With `CO[C@H]1CC=C2CCN3CCC4=C(CC(=O)OC4)[C@]23C1` [Dihydro-β-erythroidine, dihydro-β-erythroidine], in assay [1], the pKihigh was found to be 7.1 ± 0.1 and the pKilow was 5.7 ± 0.2. In assay [2], the pKihigh turned out to be 7.7 ± 0.2 and the pKilow came to 6.3 ± 0.1.
`C[N+](C)(C)CCCCCC[N+](C)(C)C` [Hexamethonium, hexamethonium chloride]: in assay [1], the “Competition in the [^3H]-epibatidine binding assay” value (shortened to “Competition”) was “competitive”; the “pKi (single site; cell spans pKihigh and pKilow columns)” value is 3.4 ± 0.1. Moreover, in assay [2], the “Competition” value is listed as “competitive” and the “pKi (single site; one-site fit)” value is 4.0 ± 0.1.
For `CNC1(C)C2CCC(C2)C1(C)C` (stereo not drawn) [Mecamylamine, mecamylamine hydrochloride], the “Competition” value in assay [1] and in assay [2] was “failed to compete” in each case. For the same compound, in assay [1] (cortex segments, 400 pM [^3H]-epibatidine, 28 h, 4°C), the “pKi (single site; cell spans pKihigh and pKilow columns)” value was “NI (NI, no inhibition)”. For the same compound, the “pKi (single site; one-site fit)” value in assay [2] (cortex homogenates, 200 pM [^3H]-epibatidine, 5 h, 4°C) is listed as “NI (NI, no inhibition)”.
For the compound `CN1CCC[C@H]1c1cccnc1` [Nicotine, nicotine], the “pKi (single site; cell spans pKihigh and pKilow columns)” value in assay [3] is 7.1 ± 0.2. Also, in assay [1], the pKihigh was 7.8 ± 0.2 and 7.9 ± 0.1; the pKilow was 6.3 ± 0.2 and 6.5 ± 0.1. In assay [4], this compound returned a pKihigh of 8.2 ± 0.1 and a pKilow of 6.3 ± 0.1. In assay [5], the “Upregulation of nAChRs” value is reported as “no upregulation”. Moreover, in assay [2], the pKi turned out to be 8.1 ± 0.1 and the “pKi (single site; one-site fit)” value is reported as 8.4 ± 0.1.
